Measurements taken from patent US20050271676A1, “Inducing cellular immune responses to human immunodeficiency virus-1 using peptide and nucleic acid compositions” (Epimmune Inc., priority 1993, published 2005).
No end group written: not given here.

Legend:
HLA-A*0101 = HLA-A*0101 (Homo sapiens, UniProt P04439, A114D/A174V/A182V/D101N/D185E/E176A/E190D/L180R/Q94H/R68K/S129P/T187R/V100A/V91M/W191G); test: biochemical; type: binding
HLA-DRB1*0301 (DR3) = target: T1, HLA-DRB1*0301 (DR3) (Homo sapiens, UniProt P01903+P01911, A100K/A102G/A103R/A169T/F55Y/I96L/K41T/L162R/M171V/P40S/Q125H/Q178H/Q39Y/R42S/S66N/T106N/T262R/W38E/Y61H); test: purified HLA class II binding assay, DRB1*0301 (DR3), pH 4.5
T1 construct: endogenous in cells; host or cells: MAT

HLA-DRB1*0401 (DR4w4) = target: T2, HLA-DRB1*0401 (DR4w4) (Homo sapiens, UniProt P01903+P01911, A100K/A169T/F76Y/I96L/K127E/L162R/M171V/N62H/P40V/Q125Y/R42H/S133A/S149N/S66Y/V115G/V209L/W38E); test: purified HLA class II binding assay, DRB1*0401 (DR4w4)
T2 construct: endogenous in cells; host or cells: Preiss

HLA-DRB1*0701 (DR7) = target: T3, HLA-DRB1*0701 (DR7) (Homo sapiens, UniProt P01903+P01911, A100R/A102G/A103Q/D57E/D86V/E43K/F76Y/K127E/L162R/M171V/P40G/Q125H/Q99D/R33Q/R42Y/R54Q/S133A/S66F/T210M/V115G/Y107V/Y59L/Y89S); test: biochemical; type: binding
T3 construct: endogenous in cells; host or cells: Pitout

HLA-DRB1*0802 (DR8w2) = target: T4, HLA-DRB1*0802 (DR8w2) (Homo sapiens, UniProt P01903+P01911, A100R/A103L/A169T/F76Y/H45Y/I96F/K41T/L162R/M171V/P40S/Q125H/Q178H/Q39Y/Q99D/R218S/R42G/S66Y/V115G/W38E); test: biochemical; type: binding
T4 construct: endogenous in cells

HLA-DRB1*0901 (DR9) = target: T5, HLA-DRB1*0901 (DR9) (Homo sapiens, UniProt P01903+P01911, A100R/A103E/D57H/D86V/F55Y/F60I/F76Y/I96F/K127E/L162R/M171V/P40D/Q125H/Q99R/R33Q/R42F/S133A/S66N/T210M/V115G/W38K/Y107V/Y59G/Y89S); test: biochemical; type: binding
T5 construct: endogenous in cells

HLA-DRB1*1101 (DR5w11) = target: T6, HLA-DRB1*1101 (DR5w11) (Homo sapiens, UniProt P01903+P01911, A100R/A169T/A87E/I96F/K41T/L162R/M171V/P40S/Q125H/Q178H/Q39Y/Q99D/R42S/S66Y/T262R/V115G/W38E); test: biochemical; type: binding
T6 construct: endogenous in cells

HLA-DRB1*1201 (DR5w12) = target: T7, HLA-DRB1*1201 (DR5w12) (Homo sapiens, UniProt P01903+P01911, A100R/A169T/D57E/D86V/F55L/H45Y/K41T/L162R/M171V/P40S/Q125H/Q178H/Q39Y/Q99D/R42G/S66L/T262R/V114A/V67L/W38E/Y59H/Y61H/Y89S); test: purified HLA class II binding assay, DRB1*1201 (DR5w12)
T7 construct: endogenous in cells

HLA-DRB1*1302 (DR6w19) = HLA-DRB1*1302 (DR6w19) (Homo sapiens, UniProt P01903+P01911, A100E/A169T/K41T/L162R/M171V/P40S/Q125H/Q178H/Q39Y/Q99D/R42S/S66N/T262R/V115G/W38E/Y61H); test: purified HLA class II binding assay, DRB1*1302 (DR6w19)
HLA-DRB1*1501 (DR2w2β1) = target: T8, HLA-DRB1*1501 (DR2w2β1) (Homo sapiens, UniProt P01903+P01911); test: purified HLA class II binding assay, DRB1*1501 (DR2w2β1)
T8 construct: expressed in transfected cells

HLA-DRB5*0101 (DR2w2β2) = target: T9, HLA-DRB5*0101 (DR2w2β2) (Homo sapiens, UniProt P01903+Q30154); test: biochemical; type: binding
T9 construct: expressed in transfected cells

HLA-DRB1*0405 (DR4w15) = HLA-DRB1*0405 (DR4w15) (Homo sapiens, UniProt P01903+P01911, A100R/A169T/D86S/F76Y/I96L/K127E/L162R/M171V/N62H/P40V/Q125Y/R42H/S133A/S149N/S66Y/V115G/V209L/W38E); test: purified HLA class II binding assay, DRB1*0405 (DR4w15)
HLA-A*0301 = target: T10, HLA-A*0301 (Homo sapiens, UniProt P04439); test: purified HLA class I binding assay, A*0301
T10 construct: endogenous in cells; host or cells: GM3107

HLA-A*1101 = HLA-A*1101 (Homo sapiens, UniProt P04439, A114D/D185E/E176A/F33Y/L180Q/S129P/T187R); test: purified HLA class I binding assay, A*1101
HLA-A*3101 = HLA-A*3101 (Homo sapiens, UniProt P04439, A270S/D185E/E176V/E277Q/F33T/G231S/G80R/H175R/I121M/I218V/I322F/K168Q/L300P/L318F/M331R/P217A/Q94H/R138Q/T323A/T345S/T97I/V358M); test: purified HLA class I binding assay, A*3101
HLA-A*3301 = HLA-A*3301 (Homo sapiens, UniProt P04439, A270S/D185E/E176V/E277Q/E87N/F33T/G231S/H175R/I121M/I218V/I322F/K168Q/K210R/L300P/L318F/M331R/P217A/Q86R/Q94H/R138Q/T323A/T345S/T97I/V358M/Y195H); test: purified HLA class I binding assay, A*3301
[1] = HIV DR super motif peptides, unit not given

T6 sequence (P01903 26-254, other chains not shown): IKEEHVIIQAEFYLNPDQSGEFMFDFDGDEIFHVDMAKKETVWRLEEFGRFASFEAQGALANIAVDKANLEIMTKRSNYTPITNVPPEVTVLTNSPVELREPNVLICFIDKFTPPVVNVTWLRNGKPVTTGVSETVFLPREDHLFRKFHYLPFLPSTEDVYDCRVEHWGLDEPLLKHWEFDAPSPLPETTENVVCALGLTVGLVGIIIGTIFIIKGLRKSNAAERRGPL
T2 sequence (P01903 26-254 partner, other chains not shown): as the sequence (P01903 26-254, other chains not shown) above
T1 sequence (P01903 26-254 partner, other chains not shown): as the sequence (P01903 26-254, other chains not shown) above

## LVAVIIVASGY
HLA-A*0101
  A*0101 (binding affinity ratio): 0.0390
  A*0101 (binding information): 0.0390

## SPEVIFMFSALSEGA
HLA-DRB1*0301 (DR3); [1]
  DR3 binding: −0.0043
HLA-DRB1*0401 (DR4w4); [1]
  DR4w4 binding: 0.1600
HLA-DRB1*0701 (DR7)
  DR7 binding: −0.0007
HLA-DRB1*0802 (DR8w2)
  DR8w2 binding: 0.0130
HLA-DRB1*0901 (DR9)
  DR9 binding: 0.0130
HLA-DRB1*1101 (DR5w11)
  DR5w11 binding: 0.0075
HLA-DRB1*1201 (DR5w12); [1]
  DR5w12 binding: −0.0045
HLA-DRB1*1302 (DR6w19); [1]
  DR6w19 binding: 0.0007
HLA-DRB1*1501 (DR2w2β1); [1]
  DR2 wβ1 binding: 0.0280
HLA-DRB5*0101 (DR2w2β2)
  DR2w2β2 binding: 0.0034

## EVNIVTDSQY [Peptide 1.0431]
HLA-A*0101
  IC50: 472 nM

## CC(C)C[C@H](NC(=O)[C@H](CCCCN)NC(=O)[C@@H](NC(=O)[C@H](CC(C)C)NC(=O)[C@@H]1CCCN1C(=O)[C@@H]1CCCN1C(=O)[C@@H](NC(=O)[C@H](CC(N)=O)NC(=O)[C@@H](NC(=O)[C@H](Cc1ccccc1)NC(=O)[C@H](CCC(=O)O)NC(=O)[C@@H](N)Cc1c[nH]c2ccccc12)C(C)C)[C@@H](C)O)C(C)C)C(=O)N[C@@H](Cc1c[nH]c2ccccc12)C(=O)N[C@@H](Cc1ccc(O)cc1)C(=O)N[C@@H](CCC(N)=O)C(=O)O [Peptide 27.0354]
HLA-DRB1*0401 (DR4w4)
  IC50: 28 nM
HLA-DRB1*0405 (DR4w15)
  IC50: 20 nM
HLA-DRB1*0701 (DR7)
  IC50: 15 nM
HLA-DRB1*0802 (DR8w2)
  IC50: 350 nM
HLA-DRB1*0901 (DR9)
  IC50: 39 nM
HLA-DRB1*1201 (DR5w12)
  IC50: 1360 nM
HLA-DRB1*1302 (DR6w19)
  IC50: 90 nM
HLA-DRB5*0101 (DR2w2β2)
  IC50: 2.1 nM

## ILKEVYIIGVY
HLA-A*0101
  A*0101 (binding information): 0.0017

## HSNWRAMASDFNLPP [Peptide 27.0364]
HLA-DRB1*0301 (DR3)
  IC50: > 20000 nM
HLA-DRB1*0401 (DR4w4)
  IC50: 11 nM
HLA-DRB1*0405 (DR4w15)
  IC50: 15 nM
HLA-DRB1*0701 (DR7)
  IC50: 472 nM
HLA-DRB1*0802 (DR8w2)
  IC50: 1960 nM
HLA-DRB1*0901 (DR9)
  IC50: 872 nM
HLA-DRB1*1101 (DR5w11)
  IC50: 95 nM
HLA-DRB1*1201 (DR5w12)
  IC50: > 20000 nM
HLA-DRB1*1302 (DR6w19)
  IC50: 4370 nM
HLA-DRB1*1501 (DR2w2β1)
  IC50: > 20000 nM

## TTLFCASDAK [1273.07]
HLA-A*0301
  IC50: 120 nM
HLA-A*1101
  IC50: 27.3 nM
HLA-A*3101
  IC50: 9470 nM
HLA-A*3301
  IC50: 14500 nM

## CC[C@H](C)[C@H](NC(=O)[C@H](C)N)C(=O)N[C@@H](Cc1ccccc1)C(=O)N[C@@H](CCC(N)=O)C(=O)N[C@@H](CO)C(=O)N[C@@H](CO)C(=O)N[C@@H](CCSC)C(=O)N[C@H](C(=O)N[C@@H](CCCCN)C(=O)O)[C@@H](C)O [Peptide 966.01]
HLA-A*0301
  IC50: 10 nM
HLA-A*1101
  IC50: 10 nM
HLA-A*3101
  IC50: 12000 nM
HLA-A*3301
  IC50: 96700 nM

## CC[C@H](C)[C@H](NC(=O)[C@H](C)NC(=O)[C@@H]1CCCN1C(=O)[C@@H](N)CO)C(=O)N[C@@H](Cc1ccccc1)C(=O)N[C@@H](CCC(N)=O)C(=O)N[C@@H](CO)C(=O)N[C@@H](CO)C(=O)N[C@@H](CCSC)C(=O)N[C@H](C(=O)N[C@@H](CCCCN)C(=O)N[C@H](C(=O)N[C@@H](CC(C)C)C(=O)N[C@@H](CCC(=O)O)C(=O)N1CCC[C@H]1C(=O)O)[C@@H](C)CC)[C@@H](C)O [Peptide 27.0344]
HLA-DRB1*0301 (DR3)
  IC50: > 20000 nM
HLA-DRB1*0401 (DR4w4)
  IC50: 3570 nM
HLA-DRB1*0405 (DR4w15)
  IC50: 109 nM
HLA-DRB1*0701 (DR7)
  IC50: 68 nM
HLA-DRB1*0802 (DR8w2)
  IC50: 3270 nM
HLA-DRB1*0901 (DR9)
  IC50: 33 nM
HLA-DRB1*1101 (DR5w11)
  IC50: 741 nM
HLA-DRB1*1201 (DR5w12)
  IC50: > 20000 nM
HLA-DRB1*1302 (DR6w19)
  IC50: 13 nM

## VMIVWQVDR [Peptide 1273.08]
HLA-A*1101
  IC50: 273 nM
HLA-A*3101
  IC50: 3.8 nM
HLA-A*3301
  IC50: 5.3 nM

## IVIWGKTPK [1193.0200]
HLA-A*1101
  IC50: 16.2 nM
HLA-A*3101
  IC50: 18.2 nM
HLA-A*3301
  IC50: 96.7 nM
